Measured values: patent US10155021B2, “Antimicrobial 4-oxoquinolizines” (Emergent Product Development Gaithersburg Inc., priority 2011, dated 2018)
In brackets after ≈: the same amount, converted by molar mass. Like-named read-outs stand apart in the source and are kept apart here.

Assays:
A. baumannii A329 [1] = assay: MIC determination for Acinetobacter strains (Example 3); type: cell-based; conditions: LEV R, CIP R, MRP R, IMP R, AMK R, TET R
A. baumannii A473 [2] = assay: Preliminary MBC without and with sub-inhibitory polymyxin B (Example 4); type: cell-based, Acinetobacter baumannii; conditions: Acinetobacter baumannii, A473, A. baumannii A473, without polymyxin B, read-out: MBC without PB
A. baumannii A401 [3] = assay: as above; type: cell-based, Acinetobacter baumannii; conditions: Acinetobacter baumannii, A401, A baumannii A 401, without polymyxin B, preliminary MBC, read-out: MBC without PB
Pseudomonas ssp PER-1 = assay: MIC, panel of quinolone-resistant strains (CLSI); type: cell-based, Pseudomonas spp; conditions: PER1, CIP R, ESBL
P. aeruginosa 1388-3-02 = assay: MIC, panel of quinolone-resistant strains (CLSI); type: cell-based; conditions: Pseudomonas aeruginosa, 1388302; CIP R, POL R
[4] = test system: Acinetobacter sp. (H064200250); assay: MIC without and with sub-inhibitory polymyxin B (Example 4); type: cell-based; conditions: Acinetobacter, without polymyxin B
A. baumannii A 401 = assay: MIC determination for Acinetobacter strains (Example 3); type: cell-based; conditions: A401, LEV R, CIP R, AMK R, TET R
A. baumannii A390 = assay: Preliminary MBC without and with sub-inhibitory polymyxin B (Example 4); type: cell-based, Acinetobacter baumannii; conditions: Acinetobacter baumannii, A390, A. baumannii A390; without polymyxin B; 2nd experiment; preliminary MBC; read-out: MBC without PB
A. baumannii A489 [5] = assay: as above; type: cell-based, Acinetobacter baumannii; conditions: Acinetobacter baumannii, A489, A. baumannii A489, without polymyxin B, read-out: MBC without PB
A. baumannii A401 [6] = assay: MIC without and with sub-inhibitory polymyxin B (Example 4); type: cell-based, Acinetobacter baumannii; conditions: for MIC: Acinetobacter baumannii, A401, A baumannii A 401, without polymyxin B, read-out: MIC without PB
A. baumannii A489 [7] = assay: as above; type: cell-based, Acinetobacter baumannii; conditions: Acinetobacter baumannii, A489, A. baumannii A489, without polymyxin B, read-out: MIC without PB
[8] = test system: Acinetobacter sp. (H064200250); assay: Preliminary MBC without and with sub-inhibitory polymyxin B (Example 4); type: cell-based; conditions: Acinetobacter, without polymyxin B, preliminary MBC, read-out: MBC without PB
Summary of the method: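 Bactericidal endpoint scored visually on plates incubated at 37° C (18-20 hours): the lowest concentration where growth fell about 90% versus the positive control, generally leaving one colony or none.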

A. baumannii A472 [9] = assay: as above; type: cell-based, Acinetobacter baumannii; conditions: Acinetobacter baumannii, A472, A. baumannii A472, without polymyxin B, 2nd experiment, read-out: MBC without PB
[10] = test system: resistant strains of A. baumannii and one strain of Acinetobacter sp.; assay: MIC without and with sub-inhibitory polymyxin B, whole panel / MIC ranges (Example 4; also strains not listed separately); type: cell-based; conditions: Acinetobacter baumannii
A. baumannii A472 [11] = assay: MIC without and with sub-inhibitory polymyxin B (Example 4); type: cell-based, Acinetobacter baumannii; conditions: for MIC: Acinetobacter baumannii, A472, A. baumannii A472, without polymyxin B, read-out: MIC without PB
A. baumannii A329 [12] = assay: as above; type: cell-based, Acinetobacter baumannii; conditions: Acinetobacter baumannii
E. coli CTX-M-15 = assay: MIC, panel of quinolone-resistant strains (CLSI); type: cell-based; conditions: Escherichia coli, CTXM15; CIP R, ESBL
E. coli 2906 = assay: MIC, panel of quinolone-resistant strains (CLSI); type: cell-based; conditions: Escherichia coli, CIP R
[13] = test system: Acinetobacter spp. H064200250; assay: MIC determination for Acinetobacter strains (Example 3); type: cell-based, Acinetobacter sp.; conditions: LEV R, CIP R, MRP R, IMP I
A. baumannii A329 [14] = assay: Preliminary MBC without and with sub-inhibitory polymyxin B (Example 4); type: cell-based, Acinetobacter baumannii; conditions: Acinetobacter baumannii, A329, A. baumannii A329, without polymyxin B, read-out: MBC without PB
A. baumannii A472 [15] = assay: MIC determination for Acinetobacter strains (Example 3); type: cell-based; conditions: LEV R, CIP R, MRP I, IMP I, AMK R, TET R
A. baumannii J2 = assay: MIC without and with sub-inhibitory polymyxin B (Example 4); type: cell-based, Acinetobacter baumannii; conditions: Acinetobacter baumannii, J2, A. baumannii J2, without polymyxin B, read-out: MIC without PB
A. baumannii A473 [16] = assay: as above; type: cell-based, Acinetobacter baumannii; conditions: Acinetobacter baumannii, A473, A. baumannii A473, without polymyxin B, read-out: MIC without PB
[17] = Acinetobacter spp. H064200250 (OXA51), 2nd experiment, visual reading, read-out: MIC without PB
[18] = Acinetobacter spp. H064200250, 1st experiment, read-out: MIC without PB
[19] = Acinetobacter spp. H064200250 (OXA51), 2nd experiment
[20] = Acinetobacter spp. H064200250, 1st experiment
[21] = A329, A. baumannii A329, without polymyxin B, 1st experiment, read-out: MIC without PB
[22] = A329, A. baumannii A329, without polymyxin B, 2nd experiment, visual reading, read-out: MIC without PB

## Cc1c(-c2ccc(CN)c(F)c2)ccn2c(=O)c(C(=O)O)cc(C3CC3)c12 [Compound 4, 8-(3-fluoro-4-aminomethyl-phenyl)-1-cyclopropyl-9-methyl-4-oxo-quinolizine-3-carboxylic acid]
A. baumannii A329 [1]
  MIC: 16 µg/mL (≈ 43.7 µM)
A. baumannii A473 [2]; 1st experiment
  MBC: 4 µg/mL (≈ 10.9 µM)
A. baumannii A401 [3]; 2nd experiment
  MBC: 32 µg/mL (≈ 87.3 µM)
A. baumannii A401 [3]; 1st experiment
  MBC: 4 µg/mL (≈ 10.9 µM)
Pseudomonas ssp PER-1
  MIC: 8 µg/mL (≈ 21.8 µM)
P. aeruginosa 1388-3-02
  MIC: 16 µg/mL (≈ 43.7 µM)
[4]; Acinetobacter spp. H064200250 (OXA51), 2nd experiment, MIC read with alamar blue, read-out: MIC without PB, read with alamar blue
  MIC: 16 µg/mL (≈ 43.7 µM)
[4]; [17]
  MIC: 32 µg/mL (≈ 87.3 µM)
[4]; [18]
  MIC: 16 µg/mL (≈ 43.7 µM)
A. baumannii A 401
  MIC: 16 µg/mL (≈ 43.7 µM)
A. baumannii A390
  MBC: 32 µg/mL (≈ 87.3 µM)
A. baumannii A489 [5]; 1st experiment
  MBC: 4 µg/mL (≈ 10.9 µM)
A. baumannii A489 [5]; 2nd experiment
  MBC: 16 µg/mL (≈ 43.7 µM)
A. baumannii A401 [6]; 1st experiment
  MIC: 16 µg/mL (≈ 43.7 µM)
A. baumannii A401 [6]; 2nd experiment, visual reading
  MIC: 16 µg/mL (≈ 43.7 µM)
A. baumannii A489 [7]; 2nd experiment, visual reading
  MIC: 16 µg/mL (≈ 43.7 µM)
[8]; [19]
  MBC: 32 µg/mL (≈ 87.3 µM)
[8]; [20]
  MBC: 16 µg/mL (≈ 43.7 µM)
A. baumannii A472 [9]
  MBC: 16 µg/mL (≈ 43.7 µM)
[10]; read-out: MIC range without PB 01-10-2008 n = 8, without polymyxin B, 1st experiment, 8 strains
  MIC: 2 to 32 µg/mL (≈ 5.46 to 87.3 µM)
[10]; without polymyxin B, 2nd experiment, 11 strains, read-out: MIC range without PB 14-10-2008 n = 11
  MIC: 4 to 16 µg/mL (≈ 10.9 to 43.7 µM)
A. baumannii A472 [11]; 2nd experiment, visual reading
  MIC: 16 µg/mL (≈ 43.7 µM)
A. baumannii A329 [12]; [21]
  MIC: 16 µg/mL (≈ 43.7 µM)
A. baumannii A329 [12]; [22]
  MIC: 16 µg/mL (≈ 43.7 µM)
E. coli CTX-M-15
  MIC: 16 µg/mL (≈ 43.7 µM)
E. coli 2906
  MIC: 8 µg/mL (≈ 21.8 µM)
[13]
  MIC: 16 µg/mL (≈ 43.7 µM)
A. baumannii A329 [14]; 1st experiment
  MBC: 16 µg/mL (≈ 43.7 µM)
A. baumannii A329 [14]; 2nd experiment
  MBC: 32 µg/mL (≈ 87.3 µM)

## Cc1c(-c2cc(Cl)c(N)c(Cl)c2)ccn2c(=O)c(C(=O)O)cc(C3CC3)c12 [Compound 3, 8-(3,5-dichloro-4-amino-phenyl)-1-cyclopropyl-9-methyl-4-oxo-quinolizine-3-carboxylic acid]
A. baumannii A329 [1]
  MIC: 16 µg/mL (≈ 39.7 µM)
A. baumannii A473 [2]; 1st experiment
  MBC: 4 µg/mL (≈ 9.92 µM)
A. baumannii A473 [2]; 2nd experiment
  MBC: 8 µg/mL (≈ 19.8 µM)
A. baumannii A401 [3]; 2nd experiment
  MBC: 16 µg/mL (≈ 39.7 µM)
A. baumannii A401 [3]; 1st experiment
  MBC: 4 µg/mL (≈ 9.92 µM)
Pseudomonas ssp PER-1
  MIC: 32 µg/mL (≈ 79.4 µM)
P. aeruginosa 1388-3-02
  MIC: 8 µg/mL (≈ 19.8 µM)
[4]; [17]
  MIC: 16 µg/mL (≈ 39.7 µM)
[4]; [18]
  MIC: 8 µg/mL (≈ 19.8 µM)
A. baumannii A 401
  MIC: 8 µg/mL (≈ 19.8 µM)
A. baumannii A489 [5]; 1st experiment
  MBC: 2 µg/mL (≈ 4.96 µM)
A. baumannii A489 [5]; 2nd experiment
  MBC: 4 µg/mL (≈ 9.92 µM)
A. baumannii A401 [6]; A baumannii A 401, ratio MIC without PB to MIC + PB, PB 0.06 μg/ml, 2nd experiment
  MIC ratio without/with polymyxin B: 128 µg/mL
A. baumannii A401 [6]; 1st experiment
  MIC: 8 µg/mL (≈ 19.8 µM)
A. baumannii A401 [6]; 2nd experiment, visual reading
  MIC: 16 µg/mL (≈ 39.7 µM)
A. baumannii A489 [7]; 1st experiment
  MIC: 4 µg/mL (≈ 9.92 µM)
A. baumannii A489 [7]; 2nd experiment, visual reading
  MIC: 4 µg/mL (≈ 9.92 µM)
A. baumannii A472 [15]
  MIC: 32 µg/mL (≈ 79.4 µM)
[8]; [19]
  MBC: 16 µg/mL (≈ 39.7 µM)
[8]; [20]
  MBC: 8 µg/mL (≈ 19.8 µM)
A. baumannii J2; 1st experiment
  MIC: 8 µg/mL (≈ 19.8 µM)
A. baumannii J2; 2nd experiment, visual reading
  MIC: 32 µg/mL (≈ 79.4 µM)
A. baumannii A472 [11]; A. baumannii A472, ratio MIC without PB to MIC + PB, PB […], 2nd experiment
  MIC ratio without/with polymyxin B: ≥ 1020 µg/mL
A. baumannii A472 [11]; 1st experiment
  MIC: 32 µg/mL (≈ 79.4 µM)
A. baumannii A329 [12]; [21]
  MIC: 16 µg/mL (≈ 39.7 µM)
A. baumannii A329 [12]; [22]
  MIC: 16 µg/mL (≈ 39.7 µM)
A. baumannii A329 [12]; A329, read-out: MIC +0.06 μg/ml PB, read with alamar blue, A. baumannii A329, +0.06 μg/ml polymyxin B, 2nd experiment, MIC read with alamar blue
  MIC: 1 µg/mL
A. baumannii A473 [16]; 1st experiment
  MIC: 4 µg/mL (≈ 9.92 µM)
A. baumannii A473 [16]; 2nd experiment, visual reading
  MIC: 8 µg/mL (≈ 19.8 µM)
E. coli CTX-M-15
  MIC: > 32 µg/mL
E. coli 2906
  MIC: > 32 µg/mL
[13]
  MIC: 8 µg/mL (≈ 19.8 µM)
A. baumannii A329 [14]; 1st experiment
  MBC: 16 µg/mL (≈ 39.7 µM)
A. baumannii A329 [14]; 2nd experiment
  MBC: 32 µg/mL (≈ 79.4 µM)
